Values quoted from earlier work as cited in patent publication US20110195946A1, “HIGH SOLID D[…]” (priority 2008, published 2011).

Experiments:
[1] = acute inhalation toxicity
[2] = acute oral mammalian toxicity

For `[O-][n+]1ccccc1[S][Zn][S]c1cccc[n+]1[O-]` [zinc pyrithione, bis(2-pyridylthio)zinc 1,1′ dioxide], the “LC50 (4 h)” value [1] is listed as 1.03 µg/mL.

For `N#Cc1c(-c2ccc(Cl)cc2)[nH]c(C(F)(F)F)c1Br` [Tralopyril, 4-bromo-2-(4-chlorophenyl)-5-(trifluoromethyl)-1H-pyrrole-3-carbonitrile], the LD50 [2] is given as 28.7 mg/kg.
